Measured values taken from patent US20130072563A1, “PERACID AND 2-HYDROXY ORGANIC ACID COMPOSITIONS AND METHODS FOR SANITATION AND DISEASE PREVENTION” (Fresh Express Incorporated, priority 2009, published 2013).

Experiments:
[1] = cited from earlier work
E. coli K12 [2] = experiment: Attached cells challenge test, Romaine; assay type: cell-based
[3] = tested on: Lactobacillus plantarum 14917; experiment: Suspended Cells Challenge Test at 20 s residence time with no surfactant; assay type: cell-based; settings: Lactic Acid 0 ppm
Method: The experimental treatment groups were tap water, chlorinated water, a FE sanitizer wash water (FE, FE sanitizer, a solution of peroxyacetic acid and lactic acid, as further specified in a given experiment).
The experimental protocol was as follows: • 1. Transfer 1.00 mL of a ˜10^8cfu/g Lactobacillus plantarum (ATCC 14917) stock culture into a test tube containing 9.00 mL of treatment test solution • 2. Vortex the mixture for 15 s • 3. Stop the reaction by transferring 1 mL of the treated samples to 9 mL of Butterfield Phosphate Buffer • 4. Enumerate viable residual cells through serial dilutions and spread plating with 1-mL transfers • 5. […] Repeat Steps 1 to 5 two more times • 7. Repeat Steps 1 to 6 with flume water • 8. Repeat Steps 1 to 6 with chlorinated water • 9. Repeat Steps 1 to 8 with various levels of FE • 10. Repeat Steps 1 to 8 with various levels of lactic acid • 11. Repeat Steps 1 to 8 with various levels of peroxyacetic acid • 12. Repeat Steps 1 to 11 with Listeria innocua (ATCC33090)
Estimation of Log Reductions • 1. Log […] is a measure of the percent of microorganisms that are inactivated during the disinfection process and is defined as Log Inactivation=Log10 (No/NT) where No is the initial influent concentration of viable microorganisms; NT is the concentration of surviving microorganisms. As M cfu/g=microbial population of stock culture; W cfu/g=microbial population in solution of “Water Treatment” and X cfu/g=microbial population in solution of “X Treatment,” the Log reduction caused by “Treatment X”=Log (w/x)

E. coli K12 [4] = experiment: Attached cells challenge test, Spinach; assay type: cell-based; settings: LA 0.0%
[5] = Depletion of sanitizer wash water by diced Romaine Lettuce, commercial scale test; assay type: physicochemical; settings: 38 to 40 F.
Method: (§1) These experiments evaluated the consumption or depletion of peroxyacetic acid when used to wash produce.
(§2) Treatments: chlorinated water, peroxyacetic acid wash water, and FE sanitizer wash water
(§3) Temperature: 38 to 40° F.
(§4) Produce: 1.5″×2″ diced Romaine lettuce
(§5) A. Determination of the amount of Romaine Lettuce that could deplete 600 gallons of peroxyacetic acid wash water. • 1. Perform full sanitization on the Pilot Line System. • 2. Fill the 2nd flume tank, 2″ reservoir, and 2″ filtering tank with tap water. • 3. Recycle the water through the system until the water in the system is being cooled down to 40° F. • 4. Calibrate the Prominent System and use the Prominent System to monitor the concentration of PAA in the wash water. • 5. Add the PAA to the 2nd filtering tank until the target processing limit is reached. • 6. Dice the Romaine Lettuce via the translicer. • 7. Collect the 2″33 2″ diced Romaine in totes. • 8. Record the weight of each tote prior to transferring it to the 2nd flume. • 9. Collect three untreated bags of Romaine Lettuce from each bin (1 top, 1 middle, and 1 bottom). • 10. Collect three treated bags of Romaine Lettuce at the end of F2 (1 beginning, 1 middle, and 1 end of the bin). • 11. Place white totes at the bottom of the locations with water spill. Return the spilt water back into the flume tank as needed. • 12. Place white totes at the bottom outlets of the centrifuge to collect liquid that would be spin off from the leaves. Return the collected water back into the flume tank as needed. • 13. Repeat Steps ‘e’ to ‘k’ for the rest of the bins till the FE concentrations fall below the lowest processing limits. • 14. Enumerate the microbial population (APC and Yeast and mold) on the collected samples.
B. Determination of the Amount of Romaine Lettuce that Could Deplete 600 gallons of FE Wash Water • 1. Perform full sanitization on the Pilot Line System. • 2. Fill the flume tank, 2″ flume tank, 1st reservoir, 2nd reservoir, 1st filtering tank, and 2nd filtering tank with tap water. • 3. Recycle the water through the system until the water in the system is being cooled down to 40° F. • 4. Switch on the by-passes for the 1st and 2″ flume tank systems so that water would not be going through the filtering systems but only recycling from the flume tank to its associate reservoir continuously. • 5. Add the chemical ingredients to both tank until the target processing limit is reached. • 6. Verify the concentration of FE by the probe of the Prominent Monitoring System at the 1st flume tank (F1), 1^St Reservoir (R1), 2nd Flume tank (F2), and the 2nd Reservoir (R2). • 7. Collect water samples from F1 and F2. • 8. Assemble the Romaine Lettuce Bins next to the dumpster. • 9. Transfer whole Romaine Lettuce leaves from the bin to the conveyor. • 10. Ensure that the lid above the F1 is closed. Turn the “ON/OFF” switch of the translicer to “ON”. • 11. Turn the conveyor for transferring leaves into the translicer to “ON”. • 12. Ensure that the chopped Romaine are delivered evenly into the flume tank without aggregation and clumping. • 13. Collect three untreated bags of Romaine Lettuce from each bin (1 top, 1 middle, and 1 bottom). • 14. Collect three treated bags of Romaine Lettuce at the end of F2 (1 beginning, 1 middle, and 1 end of the bin). • 15. Verify the pH, temperature, and the concentration of FE at the 1st flume tank (F1), 1st Reservoir (R1), 2nd Flume tank (F2), and the 2nd Reservoir (R2) before and after processing a bin. • 16. Place white totes at the bottom of the locations with water spill. Return the spilt water back into the flume tank as needed. • 17. Place white totes at the bottom outlets of the centrifuge to collect liquid that would be spin off from the leaves. Return the collected water back into the flume tank as needed. • 18. Repeat Steps ‘e’ to ‘o’ for the rest of the bins till the FE concentrations fall below the lowest processing limits. • 19. […]

[6] = 40° C.; cited from earlier work
[7] = tested on: indigenous microorganisms (Aerobic Plate Counts); experiment: Reduction of indigenous microorganisms on Romaine, commercial scale test; assay type: cell-based; settings: 73-84 ppm peroxyacetic acid, no lactic acid
Method: as §1, §2, §3, §4
as §5, with “Place white totes at the bottom outlets of the centrifuge to collect liquid that would be spin off from the leaves. Return the collected water back into the flume tank as needed. • 13. Repeat Steps ‘e’ to ‘k’ for the rest of the bins till the FE concentrations fall below the lowest processing limits. • 14. Enumerate the microbial population (APC and Yeast and mold) on the collected samples.” left out

[8] = 600 gallons, Diced Romaine Lettuce
[9] = Cumulative Wt. of Diced Romaine added 0.0 lb, 600 gallons
[10] = Cumulative Wt. of Diced Romaine added 55.2 lb, 600 gallons
[11] = Cumulative Wt. of Diced Romaine added 114.9 lb, 600 gallons
[12] = Cumulative Wt. of Diced Romaine added 157.2 lb, 600 gallons
[13] = Cumulative Wt. of Diced Romaine added 207.7 lb, 600 gallons
[14] = Cumulative Wt. of Diced Romaine added 272.9 lb, 600 gallons
[15] = Cumulative Wt. of Diced Romaine added 325.8 lb, 600 gallons
[16] = Cumulative Wt. of Diced Romaine added 371.3 lb, 600 gallons
[17] = Cumulative Wt. of Diced Romaine added 424.7 lb, 600 gallons
[18] = Cumulative Wt. of Diced Romaine added 502.6 lb, 600 gallons
[19] = Cumulative Wt. of Diced Romaine added 565.0 lb, 600 gallons
[20] = Cumulative Wt. of Diced Romaine added 629.0 lb, 600 gallons
[21] = Cumulative Wt. of Diced Romaine added 697.1 lb, 600 gallons
[22] = Cumulative Wt. of Diced Romaine added 762.7 lb, 600 gallons
[23] = Cumulative Wt. of Diced Romaine added 826.6 lb, 600 gallons
[24] = Cumulative Wt. of Diced Romaine added 896.2 lb, 600 gallons
[25] = Cumulative Wt. of Diced Romaine added 949.9 lb, 600 gallons

## [O][Cl+][O-] [Chlorine Dioxide]
[1]
  Oxidation Capacity: 1.57 eV

## CC(O)C(=O)O (stereo not shown) [Lactic acid, lactic acid]
E. coli K12 [2]; PAA 0 ppm, LA 1.2%
  Log reduction, attached cells: 1.28

## O=[O+][O-] [Ozone]
[1]
  Oxidation Capacity: 2.07 eV

## CC(=O)OO [Peroxyacetic acid, peroxyacetic acid]
[3]; Peroxyacetic acid 70 ppm
  log reduction of suspended cells: 4.52 log10
[3]; Peroxyacetic acid 75 ppm
  log reduction of suspended cells: 5.59 log10
[3]; Peroxyacetic acid 80 ppm
  log reduction of suspended cells: 5.59 log10
E. coli K12 [2]; PAA 80 ppm, LA 0.0%
  Log reduction, attached cells: 1.18
E. coli K12 [4]; PAA 70 ppm
  Log reduction, attached cells: 1.33
E. coli K12 [4]; PAA 80 ppm
  Log reduction, attached cells: 2.46
[5]; 600 gallons of sanitizer
  Pounds of Romaine treated: 949.90 lb
[5]; 600 gallons
  Depletion of PA: 0.000013 lb of PA per lb of Romaine
[5]; [8]
  Amount of PA (PAA) consumed: 11.7 ppm
  Pounds of PA (PAA) consumed: 0.01208 lb
[5]; [9]
  PA (ppm) in wash water: 84.8 ppm
  Peroxide (ppm) in wash water: 7.5 ppm
[5]; [10]
  PA (ppm) in wash water: 83.3 ppm
  Peroxide (ppm) in wash water: 7.4 ppm
[5]; [11]
  PA (ppm) in wash water: 82.7 ppm
  Peroxide (ppm) in wash water: 7.4 ppm
[5]; [12]
  PA (ppm) in wash water: 82.4 ppm
  Peroxide (ppm) in wash water: 7.4 ppm
[5]; [13]
  PA (ppm) in wash water: 82.0 ppm
  Peroxide (ppm) in wash water: 7.4 ppm
[5]; [14]
  PA (ppm) in wash water: 81.4 ppm
  Peroxide (ppm) in wash water: 7.3 ppm
[5]; [15]
  PA (ppm) in wash water: 81.0 ppm
  Peroxide (ppm) in wash water: 7.3 ppm
[5]; [16]
  PA (ppm) in wash water: 80.5 ppm
  Peroxide (ppm) in wash water: 7.1 ppm
[5]; [17]
  PA (ppm) in wash water: 79.6 ppm
  Peroxide (ppm) in wash water: 6.9 ppm
[5]; [18]
  PA (ppm) in wash water: 78.7 ppm
  Peroxide (ppm) in wash water: 6.9 ppm
[5]; [19]
  PA (ppm) in wash water: 78.4 ppm
  Peroxide (ppm) in wash water: 6.9 ppm
[5]; [20]
  PA (ppm) in wash water: 77.7 ppm
  Peroxide (ppm) in wash water: 6.4 ppm
[5]; [21]
  PA (ppm) in wash water: 76.1 ppm
  Peroxide (ppm) in wash water: 6.4 ppm
[5]; [22]
  PA (ppm) in wash water: 75.4 ppm
  Peroxide (ppm) in wash water: 6.1 ppm
[5]; [23]
  PA (ppm) in wash water: 74.7 ppm
  Peroxide (ppm) in wash water: 6.0 ppm
[5]; [24]
  PA (ppm) in wash water: 73.7 ppm
  Peroxide (ppm) in wash water: 6.0 ppm
[5]; [25]
  PA (ppm) in wash water: 73.1 ppm
  Peroxide (ppm) in wash water: 6.0 ppm
[6]
  apparent equilibrium constant Kap: about 2.21
[7]
  Aerobic Plate Counts after wash: 2.7 Log cfu/g
  Log Reduction of indigenous microorganisms: 0.7 log10
[1]
  Oxidation Capacity: 1.81 eV

## OCl [Sodium hypochlorite (Chlorine bleach), Sodium hypochlorite]
[1]
  Oxidation Capacity: 1.36 eV
